The record followed here is ChEMBL document CHEMBL1135441, “Elevation of ligand binding to muscarinic M(2) acetylcholine receptors by bis(ammonio)alkane-type allosteric modulators” (J Med Chem, 2002).

In this experiment the target is Muscarinic acetylcholine receptor M2 (Sus scrofa) (UniProt P06199). The experiment in a line: Binding of [3H]N-methylscopolamine at porcine heart Muscarinic acetylcholine receptor M2 and negative log of the equilibrium dissociation constant was reported.
Chain of Muscarinic acetylcholine receptor M2 (Sus scrofa) (P06199 whole entry, looked up): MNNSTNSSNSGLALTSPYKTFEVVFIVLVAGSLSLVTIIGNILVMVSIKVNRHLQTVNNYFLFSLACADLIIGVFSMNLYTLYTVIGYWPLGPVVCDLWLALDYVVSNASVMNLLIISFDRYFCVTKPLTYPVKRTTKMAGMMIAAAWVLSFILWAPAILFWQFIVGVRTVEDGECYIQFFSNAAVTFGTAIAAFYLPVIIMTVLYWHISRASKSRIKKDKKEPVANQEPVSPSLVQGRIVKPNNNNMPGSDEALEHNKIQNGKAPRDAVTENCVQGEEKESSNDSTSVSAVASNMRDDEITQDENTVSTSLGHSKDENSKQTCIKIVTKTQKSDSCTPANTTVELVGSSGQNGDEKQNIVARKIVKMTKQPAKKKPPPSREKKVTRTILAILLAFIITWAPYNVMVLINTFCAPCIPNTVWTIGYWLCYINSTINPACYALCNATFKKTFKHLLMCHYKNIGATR
`CC(C)(CN1C(=O)c2ccccc2C1=O)C[N+](C)(C)CCCCCC[N+](C)(C)CC(C)(C)CN1C(=O)c2ccccc2C1=O` displayed a pKA of 7.08.

For the molecule `Cc1ccc2c(c1)C(=O)N(CCC[N+](C)(C)CCCCCC[N+](C)(C)CC(C)(C)CN1C(=O)c3ccccc3C1=O)C2=O`, the pKA amounted to 7.2.

`Cc1ccc2c(c1)C(=O)N(CCC[N+](C)(C)CCCCCC[N+](C)(C)CCCN1C(=O)c3ccccc3C1=O)C2=O` showed a pKA of 6.89.

As for `Cc1ccc2c(c1)C(=O)N(CC(C)(C)C[N+](C)(C)CCCCCC[N+](C)(C)CCCN1C(=O)c3ccccc3C1=O)C2=O`, the pKA worked out at 7.26.

`C[N+](C)(CCCCCC[N+](C)(C)CCCN1C(=O)c2ccccc2C1=O)CCCN1C(=O)c2ccccc2C1=O` registered a pKA of 6.53.

The molecule `Cc1ccc2c(c1)C(=O)N(CCC[N+](C)(C)CCCCCC[N+](C)(C)CC(C)(C)CN1C(=O)c3ccc(C)cc3C1=O)C2=O` showed a pKA of 7.41.

For the molecule `Cc1ccc2c(c1)C(=O)N(CC(C)(C)C[N+](C)(C)CCCCCC[N+](C)(C)CC(C)(C)CN1C(=O)c3ccc(C)cc3C1=O)C2=O`, the pKA was 7.21.

`CC(C)(CN1C(=O)c2ccccc2C1=O)C[N+](C)(C)CCCCCC[N+](C)(C)CCCN1C(=O)c2ccccc2C1=O` yielded a pKA of 6.9.

On to `Cc1ccc2c(c1)C(=O)N(CCC[N+](C)(C)CCCCCC[N+](C)(C)CCCN1C(=O)c3ccc(C)cc3C1=O)C2=O`, for which the pKA was 7.08.
